Measurements published in PubChem BioAssay (NCI).
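Values below derive from 48-hour exposures of cells grown in 96-well plates, with endpoints linearly interpolated between the two concentrations bracketing the appropriate inhibition level. At the GI50, growth is halved. Definition used: TGI = concentration required for complete inhibition of growth.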

What was measured:
Test in all cases: growth of human tumour cells (NCI), 48 h
HOP-62 NSCLC = test system: HOP-62 NSCLC
SK-MEL-2 melanoma = test system: SK-MEL-2 melanoma
UACC-257 melanoma = test system: UACC-257 melanoma
HCT-15 colon = test system: HCT-15 colon
786-0 renal = test system: 786-0 renal
SK-MEL-28 melanoma = test system: SK-MEL-28 melanoma
A498 renal = test system: A498 renal
SR leukemia = test system: SR leukemia
NCI-H460 lung = test system: NCI-H460 lung
LOX IMVI melanoma = test system: LOX IMVI melanoma

| Compound | GI50 (HOP-62 NSCLC) | TGI (HOP-62 NSCLC) | GI50 (SK-MEL-2 melanoma) | TGI (SK-MEL-2 melanoma) | GI50 (UACC-257 melanoma) | TGI (UACC-257 melanoma) | GI50 (HCT-15 colon) | TGI (HCT-15 colon) | GI50 (786-0 renal) | TGI (786-0 renal) | GI50 (SK-MEL-28 melanoma) | TGI (SK-MEL-28 melanoma) | GI50 (A498 renal) | TGI (A498 renal) | GI50 (SR leukemia) | TGI (SR leukemia) | GI50 (NCI-H460 lung) | TGI (NCI-H460 lung) | GI50 (LOX IMVI melanoma) | TGI (LOX IMVI melanoma) |
| --- | --- | --- | --- | --- | --- | --- | --- | --- | --- | --- | --- | --- | --- | --- | --- | --- | --- | --- | --- | --- |
| C=C1C(=O)O[C@H]2[C@H]1CC/C(COC(=O)NCCc1c[nH]c3ccc(Cl)cc13)=C\CC[C@@]1(C)O[C@@H]21 | 2.18 µM | 5.48 µM | 1.63 µM | 3.15 µM | 1.72 µM | 3.19 µM | 1.16 µM | 2.66 µM | 1.38 µM | 2.79 µM | 1.79 µM | 3.43 µM | 3.39 µM | 14.7 µM | 0.944 µM | 5.95 µM | 2.2 µM | 4.64 µM | 1.28 µM | 2.68 µM |
| Cc1cc(Cl)ccc1Nc1nc(C(F)(F)F)ccc1C(=O)N/N=C/c1ccccc1Cl | 0.836 µM | 2.72 µM | 3.22 µM | 18.8 µM | 2.24 µM | 10.2 µM | 0.438 µM | 16.5 µM | 0.672 µM | 2.67 µM | 1.38 µM | 6.88 µM | – | 3.14 µM | 0.188 µM | 0.768 µM | 0.85 µM | 4.84 µM | 0.53 µM | 2.94 µM |
| CN(C)c1ccc(/C=c2/c3ccccc3n3c2c2cc(F)ccc2[n+]3C)cc1 | 8.6 µM | 26.4 µM | 3.54 µM | 11.1 µM | 4.31 µM | 11.8 µM | 18.8 µM | > 57.6 µM | 4.24 µM | 21 µM | 3.55 µM | 14.1 µM | 5.24 µM | 17.4 µM | 0.0501 µM | 1.23 µM | 4.72 µM | 26.6 µM | 11.7 µM | > 100 µM |
| Cc1cc(Nc2cc(N3CCN(C)CC3)nc(Sc3ccc(NC(=O)C4CC4)cc3)n2)n[nH]1 | 2.99 µM | > 10 µM | 5.51 µM | > 10 µM | 3.52 µM | > 10 µM | 5.38 µM | > 10 µM | > 10 µM | > 10 µM | 3.47 µM | > 10 µM | 1.74 µM | 8.38 µM | 0.0594 µM | > 10 µM | 0.537 µM | > 10 µM | 0.424 µM | 3.87 µM |
| O=C(NCc1ccco1)c1cccc(NC2=C(Cl)C(=O)N(Cc3ccccc3)C2=O)c1 | 13.1 µM | 28.5 µM | 3.3 µM | 20.7 µM | 3.86 µM | 26.5 µM | 4.16 µM | 24 µM | 3.94 µM | 16.3 µM | 16.4 µM | 46.6 µM | 17.2 µM | 50.8 µM | 2.94 µM | 19.9 µM | 92.3 µM | > 100 µM | 3.72 µM | > 100 µM |
| CCOC(=O)c1cnn2c3ccccc3n(S(=O)(=O)c3ccc(OC)cc3)c12 | 0.523 µM | > 100 µM | 4.03 µM | > 100 µM | 17.1 µM | > 100 µM | 0.119 µM | > 100 µM | 0.666 µM | > 100 µM | 5.98 µM | > 100 µM | 0.209 µM | 0.764 µM | 0.238 µM | > 100 µM | 0.753 µM | > 100 µM | 0.496 µM | > 61 µM |
| O=C(Nc1cc(Oc2cc(F)c(NC(=O)C3(C(=O)Nc4ccc(F)cc4)CC3)cc2F)ccn1)C1CC1 | 2.76 µM | 8.71 µM | 1.35 µM | 3.64 µM | 2.08 µM | 6.32 µM | 3 µM | > 54.2 µM | 3.98 µM | > 50.1 µM | 1.64 µM | 6.33 µM | 2.41 µM | 5.18 µM | 1.7 µM | 5.38 µM | 3.27 µM | > 34.7 µM | 2.2 µM | 6.25 µM |
| O=C(C[P+](c1ccccc1)(c1ccccc1)c1ccccc1)C[P+](c1ccccc1)(c1ccccc1)c1ccccc1 | 1.46 µM | 2.84 µM | 0.341 µM | 1.04 µM | 0.416 µM | 1.28 µM | 0.241 µM | 1.6 µM | 0.496 µM | 1.16 µM | 0.332 µM | 1.29 µM | 0.223 µM | 1.02 µM | 0.31 µM | 3.89 µM | 0.546 µM | 2.3 µM | 0.235 µM | 0.637 µM |
| CN(C)CCNC(=O)c1cccc2ccc(-c3ccc(-c4ccccc4)cc3)nc12 | – | 10.3 µM | – | 32.7 µM | – | 3.58 µM | – | 4.14 µM | – | 3.39 µM | – | 3.29 µM | – | 11 µM | – | 4.64 µM | – | 2.98 µM | – | 3.09 µM |
| C[C@]12CCNC(=O)C=C1CC[C@@H]1C2CC[C@@]2(C)C1CC[C@@H]2OC(=O)COc1ccc(N(CCCl)CCCl)cc1 (some centres undefined) | – | 22.2 µM | – | 44.4 µM | – | 37.2 µM | – | 13.1 µM | – | 3.19 µM | – | 36.3 µM | – | 36.1 µM | – | 15.7 µM | – | 7.26 µM | – | 22.8 µM |
| COc1ccc(C2C=C(c3ccc(Cl)cc3)N=C3SC=C(C)N32)c(Br)c1 (centres undefined) | 3.96 µM | 13.4 µM | 4.79 µM | 18.1 µM | 4.42 µM | 18.8 µM | 2.42 µM | 12.2 µM | 3.57 µM | 25.4 µM | 5.11 µM | 17.4 µM | 4.18 µM | 16.2 µM | 2.06 µM | 14.9 µM | 2.24 µM | 5.87 µM | 2.21 µM | 7.56 µM |
| O=C(Nc1ccccc1O)c1ccc(NS(=O)(=O)c2cccc3cccnc23)cc1 | 0.855 µM | 7.33 µM | 0.806 µM | 4.35 µM | 0.571 µM | 5.25 µM | 2.08 µM | 7.71 µM | 2.4 µM | 6.4 µM | 0.834 µM | 4.91 µM | 0.208 µM | 1.62 µM | 1.31 µM | 13.9 µM | 1.05 µM | 7.28 µM | 1.23 µM | 4.8 µM |
